Experimental data reported in US20160368992A1, “A METHOD OF INCREASING GIPCR SIGNALIZATION IN THE CELLS OF A SCOLIOTIC SUBJECT” (CHU SAINTE-JUSTINE, priority 2013, published 2016).

Columns and labels:
[1] = test system: Gi proteins with MO, MT2 or β1 integrin receptors; experiment: Immunoprecipitation/Western blot: interaction of Gi proteins with GPCR and β1 integrin in MC3T3-E1 cells; assay type: cell-based
Procedure: MC3T3-E1 cells were treated with PBS or rOPN (0.5 μg/ml) then the whole cell proteins (1 mg) were incubated with anti-MOR (Abcam Toronto, ON, Canada), anti-MT2 or anti-[…] (Santa Cruz Biotechnology), plus protein G beads for immunoprecipitation (IP) at 4° C. overnight. Purified proteins were loaded on 10% gel after IP, then, processed for gel transferring to PVDF membrane and 5% BSA blocking. Membranes were exposed to antibodies specific for Gi1, Gi2, Gi3, MOR, MT2 and β1 integrin at 4° C. overnight and, subsequently, treated with secondary antibody at room temperature for 1 h. Bands were visualized using SuperSignal™ chemiluminescent (Pierce, Rockford, Ill.) and quantified by densitometric scanning.
It is notable that when different receptors signal through the same subfamily of G proteins, they share the same limited pool of G proteins. Therefore, if OPN enhances the recruitment of Gi proteins in the β1 integrin complex, reduction in the amount of Gi proteins in GiPCR complex would be expected. To evaluate this possibility, cells lysates were immunoprecipitated with antibodies against MO, MT2 or β1 integrin receptors, and the presence of Gi proteins in each precipitate was examined by Western blot using antibodies specific for Gi1, Gi2 or Gi3 isoform. […]

Gs protein = experiment: Immunoprecipitation/Western blot: Gs protein tyrosine phosphorylation and association with receptors in MC3T3-E1 cells; assay type: cell-based
From the text: Taken into account these considerations and having observed that genetic deletion of OPN inversely influenced response to Gi and Gs stimulation (FIG. 1), it was of interest to examine the effect of OPN on the functional and phosphorylation status of Gs protein and on its interaction with receptors. For this purpose, cells were subjected to isoproterenol and desmopressin in the presence of rOPN or PBS. As expected, response to isoproterenol was higher in rOPN than in PBS-treated cells.

GiPCR signaling [2] = experiment: CDS (CellKey) functional evaluation of Gi protein-mediated receptor signaling in primary mouse osteoblasts; assay type: cell-based, mice; conditions: osteoblasts from bipedal CD44 knockout (CD44-/-) mice
Gi1, Gi2, Gi3 proteins = experiment: Immunoprecipitation/Western blot: phosphorylation of Gi proteins in MC3T3-E1 cells; assay type: cell-based; conditions: rOPN vs PBS
Procedure: Given that the defective GiPCR signaling associated with idiopathic scoliosis has causatively been related to increased phosphorylation of Gi proteins (Moreau et al., 2004), it was of interest to examined whether OPN influences the phosphorylation status of Gi proteins. Accordingly, MC3T3-E1 cells were treated with rOPN, then cell lysates were immunoprecipitated with antibodies against Gi1, Gi2 or Gi3 protein isoforms, and the phosphorylation level was examined by Western blot using anti-phospho serine/threonine or anti-tyrosine antibodies. […] However, band density was higher in OPN-treated cells.
To support the involvement of α5β1 integrin in this process, cells were pre-treated with antibody against α5β1 integrin prior to rOPN treatment.
Cell extracts prepared from MC3T3-E1 that had been treated with rOPN in the presence or absence of an inhibitor specific for each kinase were subjected to immunoprecipitation and Western blot analysis. […] However, both serine and tyrosine phosphorylation were attenuated by inhibitors of FAK (FAK inhibitor-14), Scr (PP2), CaMKII (KN93), PI3K (wortmannin-data not shown), MEK (PD98059), ERK1/2 (FR180204), JNK (SP60125) and P38 (SB203580).

GiPCR signaling [3] = experiment: CDS integrated response to GiPCR ligands in MC3T3-E1 osteoblastic cell line; assay type: cell-based; conditions: MC3T3-E1 cells treated with rOPN prior to stimulation
Procedure: The functional evaluation of Gi, Gs and Gq proteins was assessed by CDS assays using osteoblasts cells derived from C57Bl/6j WT and C57Bl/6j OPN^−/− mice (bipedal and quadrupedal) using CellKey™ apparatus, as previously described (Akoume et al., 2010, and WO 2010/040234 to Moreau et al.).
MC3T3-E1 cells were used to check the effect of the knockdown of OPN and its receptors. MC3T3-E1 osteoblasts cells were transiently transfected in serum-free medium, using Lipofectamine™ RNAiMAX reagent (Invitrogen) according to the manufacturer's instructions and functional experiments were performed 48 h post transfection. The sequence of RNA oligonucleotides used for the knockdown of different genes are, ssp1 (encodes OPN) (CCACAGCCACAAGCAGUCCAGAUUA (SEQ ID NO: 9)), integrin β1 (CCUAAGUCAGCAGUAGGAACAUUAU (SEQ ID NO: 10)), integrin β3 (CCUCCAGCUCAUUGUUGAUGCUUAU (SEQ ID NO: 11)), integrin α5 (CCGAGUACCUGAUCAACCUGGUUCA (SEQ ID NO: 12)), integrin α8 (GAGAUGAAACUGAAUUCCGAGAUAA (SEQ ID NO: 13)), integrin αv (GACUGUUGAGUAUGCUCCAUGUAGA (SEQ ID NO: 14 and CD44 (GAACAAGGAGUCGUCAGAAACUCCA (SEQ ID NO: 15)). Two other siRNAs against integrin α5 were tested (UCCACCAUGUCUAUGAGCUCAUCAA (SEQ ID NO:16) and UCAGGAGCAGAUUGCAGAAUCUUAU (SEQ ID NO:17)).
To further investigate the role of OPN in Gi protein-mediated receptor signaling, several lines of experiments were performed using MC3T3-E1 osteoblastic cell line. Since these cells express OPN, was first examined whether depletion of OPN by siRNA influences the capacity of GiPCR ligands to induce cell signaling as measured by CDS in MC3T3-E1 cells. […] Similar results were obtained when cells were stimulated with oxymethazolin. […] To confirm this hypothesis, cells were treated with exogenous recombinant OPN (rOPN) prior to DAMGO and oxymethazolin stimulation.

[4] = rOPN-treated vs PBS-treated cells

## rOPN: exogenous recombinant osteopontin (R&D systems)
[1]; following rOPN treatment
  amount of Gi protein isoforms in the β1 integrin precipitates: elevated
[1]; [4]
  relative amount of Gi isoforms immunoprecipitated with MO or MT2 receptor: reduced
Gs protein; rOPN treatment
  presence of Gs proteins in the immunoprecipitates of MT2 and MO receptors: enhances
Gs protein; [4]
  Gs protein immunoprecipitates probed with anti-tyrosine antibody: higher intensity
GiPCR signaling [2]
  response to DAMGO and oxymethazolin after rOPN treatment: concentration-dependent decrease in response
Gi1, Gi2, Gi3 proteins
  phosphorylated serine and tyrosine residues in Gi precipitates (band density): higher
GiPCR signaling [3]
  integrated response to DAMGO and oxymethazolin after rOPN treatment: decrease in the integrated response in a concentration-dependent manner
